Assay results as given in patent publication US20070123556A1, “Treatment with Sigma Receptor Agonists Post-Stroke” (UNIVERSITY OF SOUTH FLORIDA, priority 2005, published 2007).
“And” between values parts separate entries of the source, which are not always exact repeats. Equal entries are not always repeated.

What was measured:
[1] = system: cultured cortical neurons; assay: in vitro ischemia (sodium azide/glucose deprivation), fura-2 [Ca2+]i; format: cell-based, rat
Method: The effects of sigma receptors on ischemia-induced changes in intracellular calcium concentrations were studied in cultured cortical neurons from embryonic (E18) rats. Dams were euthanatized by decapitation, uterus removed, and embryos dissected out and placed in isotonic buffer containing (in mM): 137 NaCl, 5 KCl, 0.2 NaH2PO4, 0.2 KH2PO4, 5.5 glucose, 6 sucrose (pH 7.4 with NaOH). Cortex were excised and minced, and tissue digested in isotonic buffer containing 0.25% trypsin/EDTA for 10 min at 37° C. and added to 3× volume of high glucose culture media (Dulbecco's Modified Eagle Media; Invitrogen, Inc., Carlsbad, Calif.), 10% (v/v) fetal calf serum, 100 U/ml penicillin and 0.1 mg/ml streptomycin. Cells were counted on a hemocytometer, plated (0.5×10^6 cells) on 18 mm coverslips coated with poly-l-lysine, and incubated at 37° C. under a 95% air, 5% CO2 atmosphere. After 24 hr the media was replaced with Neurobasal (Invitrogen) medium supplemented with B27 (Invitrogen) and 0.5 mM 1-glutamine to limit astrocyte proliferation in the cultures. Cells were used after 14-21 days in culture.
Intracellular free-calcium was measured using the calcium sensitive dye, fura-2 as previously described (DeHaven and Cuevas, 2004). Cells plated on coverslips were incubated for 1 hour at room temperature in physiological saline solution (PSS) consisting of (in mM): 140 NaCl, 3 KCl, 2.5 CaCl2, 1.2 MgCl2, 7.7 glucose and 10 HEPES (pH to 7.2 with NaOH), which also contained 1 μM of the membrane permeable ester form of fura-2, acetoxymethylester (fura-2 AM) and 0.1% dimethyl sulfoxide (DMSO). The coverslips were then washed in PSS (fura-2 AM free) prior to the experiments being carried out. All solutions were applied via a rapid application system identical to that previously described (Cuevas and Berg, 1998).
A DG-4 high-speed wavelength switcher (Sutter Instruments Co., Novato, Calif.) was used to apply alternating excitation light, and fluorescent emission was captured using a Sensicam digital CCD camera (Cooke Corporation, Auburn Hills, Mich.) and recorded with Slidebook 3.0 software (Intelligent Imaging Innovations, Denver, Colo.). Changes in [Ca^2+]i were calculated using the Slidebook 3 software (Intelligent Imaging Innovations) using methods described previously (DeHaven and Cuevas, 2004).
In vitro ischemia was achieved using the sodium azide/glucose deprivation model.
The control bath solution for all experiments was a physiological saline solution (PSS) containing (in mM) 140 NaCl, 1.2 MgCl2, 3 KCl, 2.5 CaCl2, 7.7 glucose and 10 HEPES, pH to 7.2 with NaOH. All drugs were applied in this solution unless otherwise noted. In vitro ischemia was induced by addition of the cytochrome oxidase inhibitor, NaN3 (4 mM), and removal of glucose from the PSS. For experiments in which multiple ischemic episodes were induced in a single cell, the order of drug application was alternatively reversed to compensate for any effects due to rundown, desensitization or ischemic preconditioning. For experiments with metaphit, cells were preincubated in 50 μM metaphit during the last 15 mm of fura-2 loading and immediately prior to experiments being conducted. The metaphit was washed off for 5 min in the bath using PSS.

rats subjected to MCAO = assay: isolectin IB4 labeling, activated microglia/macrophages after MCAO; format: in vivo, rat; conditions: 15 mg/kg DTG from 24 h post-MCAO
Method: MCAO surgery was performed as previously reported by Vendrame et al (Vendrame et al., 2004) and originally described by Longa et al (Longa et al., 1989). Laser Doppler Radar (LDR) was used to monitor decrease in blood perfusion which indicates successful occlusion (Moor Instruments Ltd, Devon, England). A 2 mm diameter hole was drilled into the right parietal bone (1 mm posterior and 4 mm lateral from bregma), and a guide screw was set. The LDR probe (MP10M200ST; Moor) was inserted into the guide screw, and the tip of the probe was placed against the pial surface of the brain. […] For MCAO, the embolus (4 cm long, 6 lb test monofilament) was advanced up the internal carotid artery into the middle cerebral artery and tied off at the internal/external carotid junction to produce permanent occlusion. The rat was then sutured, given a 1 ml subcutaneous injection of saline, and allowed to wake in a fresh cage.
Rats were randomly assigned to 1 of 7 groups: (1) MCAO (n=7); (2) MCAO and 15 mg/kg DTG in a 3% lactic acid vehicle (n=11); (3) MCAO and 30 mg/kg DTG (n=16); (4) MCAO and bi-daily injections of 30 mg/kg DTG (n=12); (5) MCAO and 10 mg/kg N-[2-(3,4-dichlorophenyl)ethyl]-N-methyl-2-(dimethylamino)ethylamine (BD 1047) (n=4); (6) MCAO and 10 mg/kg BD1047+30 mg/kg DTG (n=4); (7) sham/MCAO and 15 mg/kg DTG (n=4). […]

cultured microglia = conditions: response to LPS; cited from earlier work
rats = conditions: doses as high as 30 mg/kg; cited from earlier work

## Cc1ccccc1NC(=N)Nc1ccccc1C [DTG, 1,3-di-o-tolyguanidine]
[1]; 50 μM DTG after preincubation in 50 μM metaphit
  ischemia-induced elevation in [Ca2+]i: 237 ± 39 nM
[1]; 50 μM DTG, cells preincubated in 50 μM metaphit
  decrease of ischemia-evoked elevation in [Ca2+]i: 52±8%
[1]; 50 μM DTG, control cells
  decrease of ischemia-evoked rise in [Ca2+]i: ~70% and 83±3%
[1]; 50 μM DTG, no metaphit (control 291±47 nM)
  ischemia-induced elevation in [Ca2+]i: 47 ± 9 nM
Rats subjected to MCAO
  isolectin IB4-positive cells in the infarct zone: fails to elicit these elevations
Cultured microglia
  production of TNF-α: inhibits
  production of nitric oxide: inhibits
rats
  tolerability: well tolerated
